Results taken from US10125184B2, “Apolipoprotein E polypeptides and their use” (priority 2011, dated 2018).

Columns and labels:
[1] = test system: HCVcc-luc; test: Time-of-addition assay; assay type: cell-based, Hepatitis C virus; conditions: 10 nM bafilomycin A1
Method: FIGS. 5A-5D. hEP inhibits HCV entry at the attachment step. (A) HCVcc-luc was first mixed with either scrambled peptide or hEP-2 (20 μg/ml) for one hour at room temperature. In Group 1, mixed virus was directly added to Huh7.5.1 cells, whereas in Group 2, virus was purified through ultracentrifuge at 28,000×g for 4 hours in order to remove peptide, and then used to infect Huh7.5.1 cells. **p<0.005. (B) The kinetics of hEP- and bafilomycin A1-mediated inhibition were determined by time-of-addition assays, as described in the examples section. Fitted lines represent sigmoidal time-dependent curves (mean of n=3; error bars, s.d.). […] Heparin (200 μg/ml), anti-CD81 monoclonal antibody (5 μg/ml), hEP (20 μg/ml), or bafilomycin A1 (10 nM) were present in the media either continuously, during the 4° C. incubation only (attachment), or during the 37° C. incubation phase only (post-attachment). % Inhibition was calculated as 100-percent infection relative to control infections containing DMSO or an isotype antibody control containing 0.01% sodium azide (for anti-CD81 only) (mean of n=3; error bars, s.d.). (D) The effects of hEP (2.7 μM) or scrambled peptide on HCV binding were determined as described in the examples section. Results were calculated as relative RNA copies with numbers obtained from the scrambled peptide treated wells set to 100 (mean of n=3; error bars, s.d.). **p<0.005. […]

[2] = test system: HCVcc-luc; test: Attachment versus post-attachment inhibition assay; assay type: cell-based, Hepatitis C virus; conditions: heparin 200 μg/ml, anti-CD81 5 μg/ml, hEP 20 μg/ml, bafilomycin A1 10 nM
Method: FIGS. 5A-5D. hEP inhibits HCV entry at the attachment step. (A) HCVcc-luc was first mixed with either scrambled peptide or hEP-2 (20 μg/ml) for one hour at room temperature. In Group 1, mixed virus was directly added to Huh7.5.1 cells, whereas in Group 2, virus was purified through ultracentrifuge at 28,000×g for 4 hours in order to remove peptide, and then used to infect Huh7.5.1 cells. **p<0.005. (B) The kinetics of hEP- and bafilomycin A1-mediated inhibition were determined by time-of-addition assays, as described in the examples section. Fitted lines represent sigmoidal time-dependent curves (mean of n=3; error bars, s.d.). (C) HCVcc-Luc was added to Huh7.5.1 cells at 4° C. and incubated for 1.5 hrs. Unbound virus was removed by 2 washes with cold media, fresh media was added, and the cells were shifted to 37° C. to allow synchronous infection to proceed. Heparin (200 μg/ml), anti-CD81 monoclonal antibody (5 μg/ml), hEP (20 μg/ml), or bafilomycin A1 (10 nM) were present in the media either continuously, during the 4° C. incubation only (attachment), or during the 37° C. incubation phase only (post-attachment). % Inhibition was calculated as 100-percent infection relative to control infections containing DMSO or an isotype antibody control containing 0.01% sodium azide (for anti-CD81 only) (mean of n=3; error bars, s.d.). (D) The effects of hEP (2.7 μM) or scrambled peptide on HCV binding were determined as described in the examples section. Results were calculated as relative RNA copies with numbers obtained from the scrambled peptide treated wells set to 100 (mean of n=3; error bars, s.d.). **p<0.005.
To investigate the mechanistic action of hEP, three sets of experiments were conducted. First, hEP-2 (SEQ ID NO: 9) or scrambled peptide-treated HCVcc were purified through ultracentrifugation to remove the peptide and then used to infect naïve Huh7.5.1 cells. […] Second, to determine the kinetics of inhibition, a time-of-addition experiment was conducted. HCV remained sensitive to bafilomycin A1, a fusion inhibitor that prevents endosome acidification, until 3 hours after the 37° C. temperature shift (FIG. 5B), which is consistent with previous reports (Koutsoudakis et al., J Virol 2006; 80:5308-5320). […] In order to determine whether hEP-2 (SEQ ID NO: 9) blocks infection at the initial attachment step or a downstream event in the HCV entry process, hEP-2 (SEQ ID NO: 9) was either added together with HCVcc to cells during the 4° C. attachment step only, and then removed prior to shifting the temperature to 37° C., or added only after the temperature shift. As a positive control, hEP-1 was present during the entire course of the experiment. […] Finally, the direct binding of virions to cell surface was measured using a real-time PCR based assay.

[3] = test system: Huh7.5.1 cells; test: Cytotoxicity/cell viability assay (CellTiter-Glo); assay type: cell-based; conditions: 48 hours; hEP up to 100 μg/ml (~14 μM)
Method: FIGS. 1A-1C. A human apoE derived peptide (hEP) suppresses HCV infection. (A) Schematic illustration of apoE protein domains and the amino acid sequences of hEP and mEP peptides. The amino acid sequences shown are hEP-1 (SEQ ID NO: 6) and mEP (SEQ ID NO: 20). (B) Dose dependent inhibition of HCVcc infection by hEP. Huh7.5.1 cells were infected with JFH-1 HCVcc-Luc (MOI˜0.5) in the presence of hEP or mEP for 2 hours. After removal of virus and peptides, cells were further incubated for 48 hours prior to luciferase assay. Data are presented as % inhibition relative to control infections in which cells were treated with DMSO (0%). Results are expressed as mean±standard deviation (s.d.) (n=3). (C). Huh7.5.1 cells were treated with hEP or DMSO at indicated doses for 48 hours. The effect of hEP on cell viability was measured by a CellTiter Glo assay kit.
Huh7.5.1 cells (10^5 per well) were treated with hEP or DMSO at various concentrations for 48 hours in 24-well plates. The numbers of viable cells in culture were determined using the CELLTITER-GLO® Cell Viability Luminescent Assay kit according to the manufacturer's instruction (Promega).

Row | Compound | Time after 37° C. temperature shift until which HCV remained sensitive [1] [h] | Inhibition when present after the temperature shift only (post-attachment) [2] | Cytotoxicity (cell viability) [3]
1 | CO/C1=C\C(C)=C\[C@@H](C)[C@@H](O)[C@@H](C)C/C(C)=C/C=C/[C@H](OC)[C@@H]([C@@H](C)[C@@H](O)[C@H](C)[C@@]2(O)C[C@@H](O)[C@H](C)[C@@H](C(C)C)O2)OC1=O [bafilomycin A1, reference compound] | ≤ 3 | most effective | 
2 | C[C@H](N)C(=O)N[C@@H]1[C@H]2C(=C(O)C[C@@H](O)[C@@H]2O)C(=O)O[C@]1(C)C(Cl)Cl [Bactobolin, reference compound] |  |  | induced significant cell death
